Assay results reported in patent publication US6544990B2, “Substituted quinolinecarboxamides as antiviral agents” (Pharmacia & Upjohn Company, priority 2001, dated 2003).

Experiments:
[1] = molecular target: VZV polymerase (Varicella-zoster virus, UniProt P09252); test: Polymerase scintillation proximity assay (SPA), VZV; type: biochemical
[2] = molecular target: HSV polymerase (Human herpesvirus 1, UniProt P04293); test: Polymerase scintillation proximity assay (SPA), HSV; type: biochemical
[3] = molecular target: T1, HCMV polymerase (Human cytomegalovirus, UniProt P08546); test: HCMV polymerase scintillation proximity assay (SPA); type: biochemical; details: CMV polymerase
T1 construct: made in house; host or cells: recombinant baculovirus-infected SF-9 cells
Protocol: The HCMV polymerase assay is performed using a scintillation proximity assay (SPA) as described in several references, such as N. D. Cook, et al., Pharmaceutical Manufacturing International, pages 49-53 (1992); K. Takeuchi, Laboratory Practice, September issue (1992); U.S. Pat. No. 4,568,649 (1986); which are incorporated by reference herein. Reactions are performed in 96-well plates. The assay is conducted in 100 μl volume with 5.4 mM HEPES (pH 7.5), 11.7 mM KCl, 4.5 mM MgCl2, 0.36 mg/ml BSA, and 90 nM 3H-dTTP. Assays are run with and without CHAPS, (3-[(3-Cholamidopropyl)-dimethylammonio]-1-propane-sulfonate) at a final concentration of 2 mM. HCMV polymerase is diluted in enzyme dilution buffer containing 50% glycerol, 250 mM NaCl, 10 mM HEPES (pH 7.5), 100 μg/ml BSA, and 0.01% sodium azide. The HCMV polymerase, which is expressed in recombinant baculovirus-infected SF-9 cells and purified according to literature procedures, is added at 10% (or 10 μl ) of the final reaction volume, i.e., 100 μl. Compounds are diluted in 50% DMSO and 10 μl are added to each well. Control wells contain an equivalent concentration of DMSO. Unless noted otherwise, reactions are initiated via the addition of 6 nM biotinylated poly(dA)-oligo(dT) template/primer to reaction mixtures containing the enzyme, substrate, and compounds of interest. Plates are incubated in a 25 C or 37 C H20 bath and terminated via the addition of 40 μl/reaction of 0.5 M EDTA (pH 8) per well. Reactions are terminated within the time-frame during which substrate incorporation is linear and varied depending upon the enzyme and conditions used, i.e., 30 min. for HCMV polymerase. Ten μl of streptavidin-SPA beads (20 mg/mil in PBS/10% glycerol) are added following termination of the reaction. Plates are incubated 10 min. at 37 C, then equilibrated to room temperature, and counted on a Packard Topcount. Linear regressions are performed and IC50's are calculated using computer software.
A modified version of the above HCMV polymerase assay is performed as described above, but with the following changes: Compounds are diluted in 100% DMSO until final dilution into assay buffer. In the previous assay, compounds are diluted in 50% DMSO. 4.5 mM dithiotherotol (DTT) is added to the polymerase buffer.

Sequence of VZV polymerase (P09252 whole entry): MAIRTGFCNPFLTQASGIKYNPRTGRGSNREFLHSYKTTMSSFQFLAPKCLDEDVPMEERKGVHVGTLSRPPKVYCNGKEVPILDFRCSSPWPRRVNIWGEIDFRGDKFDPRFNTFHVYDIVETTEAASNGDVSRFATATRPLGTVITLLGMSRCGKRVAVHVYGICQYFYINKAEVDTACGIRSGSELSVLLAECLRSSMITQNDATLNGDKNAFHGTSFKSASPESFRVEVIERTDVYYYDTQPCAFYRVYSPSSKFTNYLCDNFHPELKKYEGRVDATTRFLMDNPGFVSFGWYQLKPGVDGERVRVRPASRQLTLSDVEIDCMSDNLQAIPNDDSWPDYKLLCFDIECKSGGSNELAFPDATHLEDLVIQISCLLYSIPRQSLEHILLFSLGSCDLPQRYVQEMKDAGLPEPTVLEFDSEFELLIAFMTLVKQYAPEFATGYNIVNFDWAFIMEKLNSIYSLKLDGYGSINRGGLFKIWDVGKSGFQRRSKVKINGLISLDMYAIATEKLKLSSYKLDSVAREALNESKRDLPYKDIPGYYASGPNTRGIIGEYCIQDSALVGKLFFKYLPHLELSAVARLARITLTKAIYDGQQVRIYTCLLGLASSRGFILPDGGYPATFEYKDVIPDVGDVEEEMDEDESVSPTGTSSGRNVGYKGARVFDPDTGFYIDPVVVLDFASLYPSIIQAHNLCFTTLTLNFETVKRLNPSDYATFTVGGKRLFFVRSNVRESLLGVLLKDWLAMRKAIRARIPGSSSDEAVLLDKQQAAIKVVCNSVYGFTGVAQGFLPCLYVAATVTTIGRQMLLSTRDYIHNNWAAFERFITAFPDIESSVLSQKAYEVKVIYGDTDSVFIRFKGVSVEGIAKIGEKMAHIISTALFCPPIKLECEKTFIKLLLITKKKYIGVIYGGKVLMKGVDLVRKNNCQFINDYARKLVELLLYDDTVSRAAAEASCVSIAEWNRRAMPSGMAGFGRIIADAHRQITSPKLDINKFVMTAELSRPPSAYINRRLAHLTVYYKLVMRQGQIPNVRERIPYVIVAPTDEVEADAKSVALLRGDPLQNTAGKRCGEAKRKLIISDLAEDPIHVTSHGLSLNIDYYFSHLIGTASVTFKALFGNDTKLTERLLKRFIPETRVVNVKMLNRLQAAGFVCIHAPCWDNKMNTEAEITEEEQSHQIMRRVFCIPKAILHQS
T1 sequence (P08546 whole entry): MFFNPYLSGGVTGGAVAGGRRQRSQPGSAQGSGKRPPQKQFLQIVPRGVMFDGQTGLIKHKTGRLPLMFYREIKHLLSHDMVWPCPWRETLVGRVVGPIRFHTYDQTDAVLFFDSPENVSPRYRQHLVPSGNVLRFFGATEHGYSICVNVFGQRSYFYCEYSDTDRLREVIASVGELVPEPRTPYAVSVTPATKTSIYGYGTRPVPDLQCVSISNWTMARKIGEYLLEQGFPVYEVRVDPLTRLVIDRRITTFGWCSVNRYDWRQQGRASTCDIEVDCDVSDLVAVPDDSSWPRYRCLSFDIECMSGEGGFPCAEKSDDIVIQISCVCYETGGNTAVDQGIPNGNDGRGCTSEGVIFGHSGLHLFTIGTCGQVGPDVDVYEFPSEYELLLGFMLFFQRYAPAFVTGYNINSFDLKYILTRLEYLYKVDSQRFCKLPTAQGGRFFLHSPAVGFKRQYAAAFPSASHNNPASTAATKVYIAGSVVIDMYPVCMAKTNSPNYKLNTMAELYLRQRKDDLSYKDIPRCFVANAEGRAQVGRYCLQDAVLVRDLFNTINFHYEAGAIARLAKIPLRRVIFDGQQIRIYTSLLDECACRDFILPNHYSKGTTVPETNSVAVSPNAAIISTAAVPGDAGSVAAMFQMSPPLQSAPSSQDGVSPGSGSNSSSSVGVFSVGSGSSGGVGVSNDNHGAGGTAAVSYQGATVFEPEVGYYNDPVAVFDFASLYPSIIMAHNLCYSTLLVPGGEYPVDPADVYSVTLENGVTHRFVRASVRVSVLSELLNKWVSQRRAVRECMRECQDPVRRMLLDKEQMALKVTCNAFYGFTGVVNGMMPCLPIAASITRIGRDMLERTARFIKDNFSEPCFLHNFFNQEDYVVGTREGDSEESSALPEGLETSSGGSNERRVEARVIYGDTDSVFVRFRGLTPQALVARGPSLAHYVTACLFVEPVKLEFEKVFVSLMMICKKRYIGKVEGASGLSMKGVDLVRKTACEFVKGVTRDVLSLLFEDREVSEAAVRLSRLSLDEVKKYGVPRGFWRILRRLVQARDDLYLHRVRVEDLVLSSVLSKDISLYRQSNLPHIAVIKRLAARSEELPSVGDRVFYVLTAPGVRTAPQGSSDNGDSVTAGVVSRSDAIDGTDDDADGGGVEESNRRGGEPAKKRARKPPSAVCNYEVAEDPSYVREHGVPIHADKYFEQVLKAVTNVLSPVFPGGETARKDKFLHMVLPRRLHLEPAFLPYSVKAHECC
Sequence of HSV polymerase (P04293 whole entry): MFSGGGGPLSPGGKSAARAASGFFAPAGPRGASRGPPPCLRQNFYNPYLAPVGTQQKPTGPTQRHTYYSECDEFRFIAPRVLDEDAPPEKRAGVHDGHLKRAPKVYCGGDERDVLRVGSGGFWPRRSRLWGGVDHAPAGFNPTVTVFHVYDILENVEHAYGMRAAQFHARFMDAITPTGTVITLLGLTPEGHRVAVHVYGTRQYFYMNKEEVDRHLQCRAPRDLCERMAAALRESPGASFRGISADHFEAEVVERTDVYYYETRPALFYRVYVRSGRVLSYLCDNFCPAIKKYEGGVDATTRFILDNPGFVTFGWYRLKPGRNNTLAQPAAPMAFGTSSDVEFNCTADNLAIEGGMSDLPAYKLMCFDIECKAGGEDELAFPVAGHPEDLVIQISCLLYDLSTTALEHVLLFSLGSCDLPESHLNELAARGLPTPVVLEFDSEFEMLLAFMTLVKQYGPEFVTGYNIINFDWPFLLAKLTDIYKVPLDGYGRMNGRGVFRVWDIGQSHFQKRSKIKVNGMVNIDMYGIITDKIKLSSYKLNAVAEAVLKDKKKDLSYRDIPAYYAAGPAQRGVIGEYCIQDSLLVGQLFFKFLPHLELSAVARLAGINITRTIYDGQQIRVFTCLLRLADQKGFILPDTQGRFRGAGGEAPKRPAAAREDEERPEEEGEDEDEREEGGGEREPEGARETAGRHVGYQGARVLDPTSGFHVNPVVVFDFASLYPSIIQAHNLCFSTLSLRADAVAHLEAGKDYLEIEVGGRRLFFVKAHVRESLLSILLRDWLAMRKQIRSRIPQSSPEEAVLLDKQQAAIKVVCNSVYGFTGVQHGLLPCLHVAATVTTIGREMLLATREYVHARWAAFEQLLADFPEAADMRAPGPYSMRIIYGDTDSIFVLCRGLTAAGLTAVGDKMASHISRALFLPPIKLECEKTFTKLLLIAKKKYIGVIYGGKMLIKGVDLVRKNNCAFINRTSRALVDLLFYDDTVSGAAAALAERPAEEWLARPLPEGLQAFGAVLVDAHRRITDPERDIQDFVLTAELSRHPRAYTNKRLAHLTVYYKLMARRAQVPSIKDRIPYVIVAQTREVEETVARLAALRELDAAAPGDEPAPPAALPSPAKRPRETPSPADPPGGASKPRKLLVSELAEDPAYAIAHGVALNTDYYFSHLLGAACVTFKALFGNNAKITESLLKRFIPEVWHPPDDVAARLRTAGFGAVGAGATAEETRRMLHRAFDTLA

Compound | IC50 [1] [µM] | melting point [°C] | IC50 [2] [µM] | IC50 [3] [µM]
Cn1cc(C(=O)NCc2ccc(Cl)cc2)c(=O)c2cc(CN3CCOCC3)cc(C#CCN3CCS(=O)(=O)CC3)c21 [Example 11, N-(4-chlorobenzyl)-8-[3-(1,1-dioxido-4-thiomorpholinyl)-1-propynyl]-1-methyl-6-(4-morpholinylmethyl)-4-oxo-1,4-dihydro-3-quinolinecarboxamide] | 0.18 | 220 to 222 | 0.28 | 0.36
Cn1cc(C(=O)NCc2ccc(Cl)cc2)c(=O)c2cc(CN3CCOCC3)cc(C#Cc3cccnc3)c21 [Example 16, N-(4-chlorobenzyl)-1-methyl-6-(morpholin-4-ylmethyl)-4-oxo-8-(pyridin-3-ylethynyl)-1,4-dihydroquinoline-3-carboxamide] | 0.15 | 195 to 197 | 0.28 | 0.47
Cn1cc(C(=O)NCc2ccc(Cl)cc2)c(=O)c2cc(CN3CCOCC3)cc(C#Cc3ccncc3)c21 [Example 17, N-(4-chlorobenzyl)-1-methyl-6-(morpholin-4-ylmethyl)-4-oxo-8-(pyridin-4-ylethynyl)-1,4-dihydroquinoline-3-carboxamide] | 0.11 | 200 to 202 | 0.21 | 0.42
Cn1cc(C(=O)NCc2ccc(Cl)cc2)c(=O)c2cc(CN3CCOCC3)cc(C#CCn3ccnc3)c21 [Example 23, N-(4-chlorobenzyl)-8-[3-(1 H-imidazol-1-yl)prop-1-ynyl]-1-methyl-6-(morpholin-4-ylmethyl)-4-oxo-1,4-dihydroquinoline-3-carboxamide] | 0.1 | 178 to 180 | 0.22 | 0.33

More lines, in order of falling IC50 [1], values ahead:

IC50 [1] [µM] | melting point [°C] | IC50 [2] [µM] | IC50 [3] [µM] | Compound
0.48 | 147 to 150 | 1 | 0.87 | C[C@@H](O)C#Cc1cc(CN2CCOCC2)cc2c(=O)c(C(=O)NCc3ccc(Cl)cc3)cn(C)c12 [Example 8, N-(4-chlorobenzyl)-8-[(3R)-3-hydroxy-1-butynyl]-1-methyl-6-(4-morpholinylmethyl)-4-oxo-1,4-dihydro-3-quinolinecarboxamide]
0.25 | 178 to 181 | 0.49 | 0.5 | Cn1cc(C(=O)NCc2ccc(Cl)cc2)c(=O)c2cc(CN3CCOCC3)cc(C#CCn3cnc(Cl)c3Cl)c21 [Example 13, N-(4-chlorobenzyl)-8-[3-(4,5-dichloro-1H-imidazol-1-yl)prop-1-ynyl]-1-methyl-6-(morpholin-4-ylmethyl)-4-oxo-1,4-dihydroquinoline-3-carboxamide]
0.18 | 158 to 161 | 0.45 | 0.76 | C[C@H](O)C#Cc1cc(CN2CCOCC2)cc2c(=O)c(C(=O)NCc3ccc(Cl)cc3)cn(C)c12 [Example 7, N-(4-chlorobenzyl)-8-[(3S)-3-hydroxy-1-butynyl]-1-methyl-6-(4-morpholinylmethyl)-4-oxo-1,4-dihydro-3-quinolinecarboxamide]
0.16 | 179 to 182 | 0.41 | 0.48 | Cn1cc(C(=O)NCc2ccc(Cl)cc2)c(=O)c2cc(CN3CCOCC3)cc(C#CCCCO)c21 [Example 10, N-(4-chlorobenzyl)-8-(5-hydroxy-1-pentynyl)-1-methyl-6-(4-morpholinylmethyl)-4-oxo-1,4-dihydro-3-quinolinecarboxamide]
0.14 | 234 to 236 | 0.26 | 0.32 | Cn1cc(C(=O)NCc2ccc(Cl)cc2)c(=O)c2cc(CN3CCOCC3)cc(C#Cc3ccccn3)c21 [Example 15, N-(4-chlorobenzyl)-1-methyl-6-(morpholin-4-ylmethyl)-4-oxo-8-(pyridin-2-ylethynyl)-1,4-dihydroquinoline-3-carboxamide]
